# Test results taken from patent US9365830B2, “Agents and methods for inhibiting human pluripotent stem cell growth” (VIACYTE, INC., priority 2010, dated 2016).
# Tests used:
# Assay type in all cases: cell-based, human
# [1] = test system: pancreatic endoderm differentiations of hESCs; assay: Suspension aggregate differentiation to pancreatic endoderm after Stage 1 treatment, Q-PCR; details: Stage 1 cultures treated with 0.1 μM Caffeic acid or 0.17 μM Ivermectin
# Experimental: FIGS. 10A-10I are bar graphs showing the relative gene expression levels of OCT4 (FIG. 10A), MIXL (FIG. 10B), HNF1B (FIG. 10C), HNF4A (FIG. 10D), PAX4 (FIG. 10E), NGN3 (FIG. 10F), NKX2.2 (FIG. 10G), NKX6.1 (FIG. 10H), and PTF1A (FIG. 10I) after treatment of suspension aggregate cell cultures at Stages 1 with DMSO (Control), 0.1 μM Caffeic acid or 0.17 μM Ivermectin agents. Untreated control samples were collected at d0 and d1 (left panel). Treated samples were collected at d2, d3, d5, d7, d9, d11, and d13. The columns for each day of the treated samples are (from left to right): DMSO, Caffeic acid, and Ivermectin. The cultures were differentiated to the end of Stage 4. The results from an untreated, pancreatic endoderm differentiation are shown on the right, with samples collected on days 0, 1, 2, 5, 8, 10 and 14.
# To further determine the effects of the above compounds (excluding those compounds that induced off-target differentiation), three selected compounds (chelerythrine chloride (FIGS. 5 & 6), caffeic acid and Ivermectin) were screened for effects on later stages of pancreatic differentiation, (such as Stages 2-5). Human ESCs were first differentiated through Stage 1 then to Stages 2 to 5 in suspension aggregate cultures similar to that above. Stage 1 cultures were treated with DMSO, caffeic acid or Ivermectin substantially as described above. Untreated control samples were collected at d0 (hESC) and d1 (FIG. 10, left panel), while treated samples were collected at days 2, 3, 5, 7, 9, 11 and 13 (FIG. 10 d2, d3, d5, d7, d9, d11 and d13 respectively). Gene expression levels in the collected samples were analyzed using Q-PCR and compared to the d0 (hESC) sample as well as qualified pancreatic endoderm (FIG. 10, right panel). The qualified pancreatic endoderm control consisted of about 50% pancreatic endoderm, about 46% endocrine cells and about 4% “other” cells as determined by flow cytometry. Neither caffeic acid nor Ivermectin affected survival, growth and/or proliferation of pancreatic endoderm differentiations. […] Typical gene expression levels for Stages 3, 4 and 5 cells were normal; for example, increased expression of NKX6.1 and PTF1A at Stage 4, pancreatic endoderm (FIGS. 10H and 10I), and of NGN3 and NKX2.2 at Stage 5, endocrine precursor and endocrine cells (FIGS. 10 F and 10G) was observed.
# [2] = test system: undifferentiated hESCs growing in adherent culture; assay: EC50 of cytotoxic effect on undifferentiated hESCs in adherent culture, real-time impedance assay; details: Homo sapiens, read-out: EC50 concentrations for hES cells (cytotoxic effect)
# Experimental: In summary, the final three (3) candidates identified from both the primary and secondary screens (EXAMPLE 1) and the full screen of the LOPAC1280™ collection (EXAMPLE 2) were Chelerythrine Chloride, Caffeic acid and Ivermectin. FIG. 11 lists the known or inferred mode(s) of action for these three compounds, as well as their structures. EC50 values for the respective cytotoxic effects on undifferentiated hESCs growing in adherent culture were determined using real-time impedance assays.
# (§1) Depletion of OCT4-positive cells during Stage 1 differentiation was examined using the plating assay described above. Stage 1 differentiations of hES cells were treated from day 1 to 2 with the candidate compounds as described in Example 2 (chelerythrine chloride, caffeic acid and Ivermectin), at their EC50 concentrations for hES cells. Plated untreated and DMSO-treated aggregates were indistinguishable, and both contained discrete clusters of OCT4-positive cells. See FIG. 13A top and bottom panels for a DMSO treated example. The intensity of OCT4-positive staining in differentiating aggregate cell cultures treated with DMSO (control) was equivalent to undifferentiated hES cells.
# [3] = test system: OCT4-positive cells in Stage 1 differentiations of hES cells; assay: Plating assay for depletion of OCT4-positive cells in Stage 1 suspension aggregates, OCT4 immunostaining
# Experimental: Human ES cell suspension aggregates were formed in rotational culture as described previously and differentiated through Stage 1 (definitive endoderm). About 20-30 aggregates were then plated per well in 4-well tissue culture dishes coated with MATRIGEL· diluted 1:200, and cultured for 24 hours in hESC medium (DMEM/F12, 10% XF-KSR, 10 ng/mL Activin A and 10 ng/mL Heregulin). This approach was intended to increase the contrast in OCT4 expression between undifferentiated hESCs and cells committed to differentiation. […] Stated in another way, mixed population cell cultures in hESC medium would potentially support expansion/proliferation of residual undifferentiated (hESCs), thereby show increased OCT4 gene expression, as compared to cells committed to differentiation, which would have decreased of OCT4 gene expression. Plated aggregates were immunostained for OCT4 protein and counterstained with DAPI, a nuclear stain (FIG. 12). The cell aggregates that were plated had flattened and spread out within a 24-hour period; while the centers of the aggregates were still domed. […] Brightly staining OCT4-positive cells were easily identified and distinguishable from the majority of OCT4 negative cells. OCT4-positive cells were generally found in clusters and most often within the domed area of a plated aggregate. […] Smaller aggregates residing in a larger aggregate may occur as a result of the initial stages of rotational culture, or the aggregation process, during which small clusters (primary aggregates) form initially. Aggregation of two or more primary aggregates likely leads to the formation of larger secondary aggregates, which can be 100-150 μm in diameter. Thus, it is possible that any single clusters of OCT4-positive cells exist at the center of a primary aggregate and resist differentiation. Such clusters would remain substantially undifferentiated and stain OCT4-positive. One hypothesis is that primary aggregates are specified to differentiation relative to their positioning in primary and secondary aggregates. For example, FIGS. 12A through 12E show a representative series of images, from small (primary) (e.g. FIGS. 12A and 12B) and larger (secondary) (e.g. FIGS. 12C-12E) plated aggregates containing OCT4-positive clusters (dark circles).
# as §1
# Additional experiments were performed using higher concentrations of compounds and extended effects of the compounds in cell culture plated aggregates in hESC medium for 24 or 72 hours before staining (FIGS. 15 and 16). […] Another group of Stage 1 differentiating cultures were processed in parallel, but treated with 10 μm chelerythrine chloride.
smiles,measurement,setting,value
"O=C(O)C=Cc1ccc(O)c(O)c1 [caffeic acid, 3,4-dihydroxycinnamic acid]","Typical gene expression levels for Stages 3, 4 and 5 cells (NKX6.1, PTF1A, NGN3, NKX2.2)",[1]; Q-PCR d2-d13,normal
same,"survival, growth and/or proliferation of pancreatic endoderm differentiations (pancreatic endoderm viability)",[1]; differentiated to end of Stage 4,did not affect pancreatic endoderm viability
same,EC50,[2],100 nM
same,size of clusters of OCT4-positive cells,"[3]; 5 or 10 μm caffeic acid, 24 hours, vs DMSO-treated (or untreated) controls",smaller in size
same,expansion of clusters of OCT4-positive cells,"[3]; 5 or 10 μm caffeic acid, 72 hours, vs DMSO treated control",did not expand substantially
same,size of OCT4-positive clusters,"[3]; another study, 0.1 μM caffeic acid, 24 hours after plating in hESC medium (FIG. 14, BG02)",even more substantial decrease
same,intensity for OCT4 staining,"[3]; treated day 1 to 2 of Stage 1 at EC50 concentration, plated 24 hours in hESC medium, vs untreated or DMSO",significantly decreased
